The values that follow are results of earlier work, collected in patent publication EP4756025A1, “DSRNA TARGETING MAPT AND PHARMACEUTICAL USE THEREOF” (Tuojie Biotech (Shanghai) Co., Ltd., priority 2023, dated 2025).

The conditions of the data set: octanol-water partition coefficient, example in the definition of lipophilic moiety.

Structures are written as SMILES.

On to `NCCCCCCO` [6-aminohexanol], for which the logKow entry is listed as “about 0.7”.

As to `CC(C)CCC[C@@H](C)[C@H]1CC[C@H]2[C@@H]3CC=C4C[C@@H](OC(=O)NCCCCCCO)CC[C@]4(C)[C@H]3CC[C@]12C` [cholesteryl N-(hexan-6-ol)carbamate], the logKow was 10.7.
